Assay results: paper PMC9851200, “Multiparameter phenotypic screening for endogenous TFEB and TFE3 translocation identifies novel chemical series modulating lysosome function” (Autophagy, 2022)

Key:
Type in all cases: binding
[1] = target: kinases (KINOMEscan panel) (Homo sapiens, UniProt P21860); conditions: ERBB3; NEW KINOMEscan
[2] = target: kinases (KINOMEscan panel) (Homo sapiens, UniProt Q9H3Y6); conditions: NEW KINOMEscan
[3] = target: kinases (KINOMEscan panel) (Homo sapiens, UniProt P06239); conditions: LCK; NEW KINOMEscan
[4] = target: T1, kinases (KINOMEscan panel) (Homo sapiens, UniProt Q9BRS2); conditions: RIOK1; NEW KINOMEscan
T1 sequence (Q9BRS2 1-568): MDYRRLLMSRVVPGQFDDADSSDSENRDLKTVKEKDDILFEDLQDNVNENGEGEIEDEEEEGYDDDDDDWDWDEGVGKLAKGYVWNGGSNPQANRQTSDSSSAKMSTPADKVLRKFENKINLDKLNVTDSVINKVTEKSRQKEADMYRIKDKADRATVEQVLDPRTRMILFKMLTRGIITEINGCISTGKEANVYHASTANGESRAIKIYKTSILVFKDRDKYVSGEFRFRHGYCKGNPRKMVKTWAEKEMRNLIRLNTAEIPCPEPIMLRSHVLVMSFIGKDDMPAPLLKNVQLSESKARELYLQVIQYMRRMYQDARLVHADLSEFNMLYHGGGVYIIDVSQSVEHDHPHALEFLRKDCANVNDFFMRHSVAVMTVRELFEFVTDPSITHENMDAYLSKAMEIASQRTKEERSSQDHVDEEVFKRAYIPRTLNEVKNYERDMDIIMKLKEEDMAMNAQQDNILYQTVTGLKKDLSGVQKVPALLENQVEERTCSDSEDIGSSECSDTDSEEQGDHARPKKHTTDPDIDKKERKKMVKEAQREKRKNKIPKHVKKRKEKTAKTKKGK

[5] = target: kinases (KINOMEscan panel) (Homo sapiens, UniProt P27037); conditions: ACVR2A; NEW KINOMEscan
[6] = target: kinases (KINOMEscan panel) (Homo sapiens, UniProt Q07002); conditions: kinase CDK18; NEW KINOMEscan
[7] = target: T2, kinases (KINOMEscan panel) (Homo sapiens, UniProt Q8TBX8); conditions: PIP4K2C; NEW KINOMEscan
T2 sequence (Q8TBX8 1-421): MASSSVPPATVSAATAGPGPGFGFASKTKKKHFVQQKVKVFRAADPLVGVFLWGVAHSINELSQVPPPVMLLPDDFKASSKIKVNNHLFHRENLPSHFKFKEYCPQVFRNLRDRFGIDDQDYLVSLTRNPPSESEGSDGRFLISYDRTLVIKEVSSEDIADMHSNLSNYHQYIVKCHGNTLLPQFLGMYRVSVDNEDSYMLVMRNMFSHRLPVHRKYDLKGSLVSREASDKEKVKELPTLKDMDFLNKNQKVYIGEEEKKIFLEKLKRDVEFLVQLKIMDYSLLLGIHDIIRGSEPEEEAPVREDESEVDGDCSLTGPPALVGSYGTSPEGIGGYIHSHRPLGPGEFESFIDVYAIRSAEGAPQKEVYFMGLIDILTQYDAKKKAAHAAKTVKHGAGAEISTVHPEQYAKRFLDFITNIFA

[8] = target: kinases (KINOMEscan panel) (Homo sapiens, UniProt Q8IU85); conditions: kinase CAMK1D; NEW KINOMEscan
[9] = target: T3, kinases (KINOMEscan panel) (Homo sapiens, UniProt P41743); conditions: PRKCI; NEW KINOMEscan
T3 sequence (P41743 1-596): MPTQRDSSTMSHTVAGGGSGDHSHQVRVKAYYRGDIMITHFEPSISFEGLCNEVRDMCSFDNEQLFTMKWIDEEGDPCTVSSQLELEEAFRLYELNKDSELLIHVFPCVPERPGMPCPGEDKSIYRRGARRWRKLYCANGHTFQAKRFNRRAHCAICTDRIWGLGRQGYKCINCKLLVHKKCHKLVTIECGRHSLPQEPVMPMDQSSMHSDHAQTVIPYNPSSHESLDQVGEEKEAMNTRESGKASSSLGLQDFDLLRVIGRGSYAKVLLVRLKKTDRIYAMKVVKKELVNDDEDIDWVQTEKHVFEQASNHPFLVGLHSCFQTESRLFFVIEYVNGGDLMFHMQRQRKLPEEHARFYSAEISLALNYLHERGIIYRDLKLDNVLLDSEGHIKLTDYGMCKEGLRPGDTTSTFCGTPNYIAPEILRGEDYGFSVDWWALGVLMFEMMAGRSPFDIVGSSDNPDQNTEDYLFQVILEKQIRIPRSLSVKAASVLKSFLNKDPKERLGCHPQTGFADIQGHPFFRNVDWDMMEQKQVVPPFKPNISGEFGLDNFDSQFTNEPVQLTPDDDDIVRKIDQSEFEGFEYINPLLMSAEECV

[10] = target: kinases (KINOMEscan panel) (Homo sapiens, UniProt P00519, T315I); conditions: NEW KINOMEscan; for KINOMEscan ABL1(T315I)-nonphosphorylated: kinase ABL1(T315I)-nonphosphorylated; for KINOMEscan ABL1(T315I)-phosphorylated: kinase ABL1(T315I)-phosphorylated
[11] = target: kinases (KINOMEscan panel) (Homo sapiens, UniProt P00533, DEL746-750); conditions: NEW KINOMEscan
kinases (KINOMEscan panel) (Homo sapiens, UniProt P00533, DEL746-750), sequence (P00533 with tags, fused parts or gaps DEL746-750): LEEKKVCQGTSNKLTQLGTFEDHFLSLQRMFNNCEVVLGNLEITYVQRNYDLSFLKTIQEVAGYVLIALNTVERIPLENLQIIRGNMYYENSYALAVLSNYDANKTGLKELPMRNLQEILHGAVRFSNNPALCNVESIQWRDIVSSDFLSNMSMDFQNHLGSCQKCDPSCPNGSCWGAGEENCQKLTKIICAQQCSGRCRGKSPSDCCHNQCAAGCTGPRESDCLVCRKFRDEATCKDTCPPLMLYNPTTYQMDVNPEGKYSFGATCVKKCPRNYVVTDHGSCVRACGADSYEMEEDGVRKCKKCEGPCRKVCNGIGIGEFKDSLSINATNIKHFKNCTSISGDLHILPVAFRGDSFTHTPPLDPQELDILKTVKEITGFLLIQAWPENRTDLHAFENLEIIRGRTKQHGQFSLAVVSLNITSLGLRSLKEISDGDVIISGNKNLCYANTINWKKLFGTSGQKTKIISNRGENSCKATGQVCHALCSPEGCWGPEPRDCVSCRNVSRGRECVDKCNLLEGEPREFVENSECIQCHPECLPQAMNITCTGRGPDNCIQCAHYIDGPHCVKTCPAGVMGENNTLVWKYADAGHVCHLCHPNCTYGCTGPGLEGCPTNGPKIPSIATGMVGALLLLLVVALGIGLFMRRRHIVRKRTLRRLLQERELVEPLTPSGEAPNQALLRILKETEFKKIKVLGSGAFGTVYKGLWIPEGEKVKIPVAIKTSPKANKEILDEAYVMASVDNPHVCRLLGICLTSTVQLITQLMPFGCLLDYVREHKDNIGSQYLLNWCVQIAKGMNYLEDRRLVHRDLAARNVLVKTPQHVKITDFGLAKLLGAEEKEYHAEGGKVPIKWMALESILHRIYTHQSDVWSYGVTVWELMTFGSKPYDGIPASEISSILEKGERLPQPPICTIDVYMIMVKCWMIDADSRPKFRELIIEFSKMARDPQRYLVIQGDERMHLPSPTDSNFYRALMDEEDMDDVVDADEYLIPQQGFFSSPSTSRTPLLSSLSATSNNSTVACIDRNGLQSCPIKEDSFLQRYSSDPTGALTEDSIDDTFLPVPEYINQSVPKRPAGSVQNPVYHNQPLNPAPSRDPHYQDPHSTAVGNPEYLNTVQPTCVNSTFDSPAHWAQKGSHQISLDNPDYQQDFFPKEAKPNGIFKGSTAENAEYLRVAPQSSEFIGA

kinases (KINOMEscan panel) (Homo sapiens, UniProt P27037), sequence (P27037 20-513): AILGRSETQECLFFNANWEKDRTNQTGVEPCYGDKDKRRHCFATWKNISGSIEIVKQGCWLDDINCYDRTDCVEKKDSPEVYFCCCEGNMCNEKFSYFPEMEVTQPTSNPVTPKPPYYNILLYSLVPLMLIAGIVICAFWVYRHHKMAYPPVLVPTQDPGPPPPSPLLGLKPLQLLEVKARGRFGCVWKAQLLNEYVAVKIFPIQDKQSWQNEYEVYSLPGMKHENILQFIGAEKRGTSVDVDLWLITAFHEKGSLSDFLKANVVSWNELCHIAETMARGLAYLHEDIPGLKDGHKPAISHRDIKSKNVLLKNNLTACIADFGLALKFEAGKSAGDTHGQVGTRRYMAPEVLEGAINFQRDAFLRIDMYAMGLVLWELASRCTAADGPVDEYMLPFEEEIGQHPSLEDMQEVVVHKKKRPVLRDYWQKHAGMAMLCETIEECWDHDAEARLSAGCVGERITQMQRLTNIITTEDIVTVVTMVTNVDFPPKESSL
kinases (KINOMEscan panel) (Homo sapiens, UniProt P21860), sequence (P21860 20-1342): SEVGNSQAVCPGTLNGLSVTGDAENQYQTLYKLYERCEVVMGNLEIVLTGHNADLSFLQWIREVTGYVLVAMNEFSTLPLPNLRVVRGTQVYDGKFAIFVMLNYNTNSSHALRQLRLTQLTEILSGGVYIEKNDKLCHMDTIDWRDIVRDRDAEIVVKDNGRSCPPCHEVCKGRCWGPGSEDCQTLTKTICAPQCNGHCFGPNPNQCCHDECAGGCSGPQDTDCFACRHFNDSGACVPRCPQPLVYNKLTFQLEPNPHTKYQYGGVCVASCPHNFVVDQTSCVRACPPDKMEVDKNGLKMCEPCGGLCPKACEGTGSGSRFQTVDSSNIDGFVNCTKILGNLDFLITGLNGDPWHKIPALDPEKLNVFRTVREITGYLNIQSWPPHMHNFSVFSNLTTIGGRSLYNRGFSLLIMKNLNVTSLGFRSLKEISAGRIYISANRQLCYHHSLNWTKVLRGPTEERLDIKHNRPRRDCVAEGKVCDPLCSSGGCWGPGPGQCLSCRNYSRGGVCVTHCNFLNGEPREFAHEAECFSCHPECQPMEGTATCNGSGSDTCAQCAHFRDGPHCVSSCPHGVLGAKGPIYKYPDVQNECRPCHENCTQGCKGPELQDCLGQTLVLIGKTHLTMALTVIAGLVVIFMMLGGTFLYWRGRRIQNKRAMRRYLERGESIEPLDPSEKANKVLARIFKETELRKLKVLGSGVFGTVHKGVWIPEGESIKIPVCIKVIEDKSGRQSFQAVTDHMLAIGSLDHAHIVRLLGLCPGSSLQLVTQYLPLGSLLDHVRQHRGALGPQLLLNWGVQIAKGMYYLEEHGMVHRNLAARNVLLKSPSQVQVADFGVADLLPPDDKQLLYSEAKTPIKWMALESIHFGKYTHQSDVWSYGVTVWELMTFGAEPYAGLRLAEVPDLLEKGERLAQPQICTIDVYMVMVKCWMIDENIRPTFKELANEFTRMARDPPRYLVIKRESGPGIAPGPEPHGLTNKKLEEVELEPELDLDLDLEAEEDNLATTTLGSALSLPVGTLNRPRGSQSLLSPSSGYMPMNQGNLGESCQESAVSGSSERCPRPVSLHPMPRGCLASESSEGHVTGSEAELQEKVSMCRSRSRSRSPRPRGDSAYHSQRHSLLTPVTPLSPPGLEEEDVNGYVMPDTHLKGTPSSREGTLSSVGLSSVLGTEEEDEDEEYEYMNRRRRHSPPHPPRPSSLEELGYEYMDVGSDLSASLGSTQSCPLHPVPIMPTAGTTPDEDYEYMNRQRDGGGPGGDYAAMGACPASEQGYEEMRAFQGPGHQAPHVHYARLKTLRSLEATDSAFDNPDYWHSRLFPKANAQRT
kinases (KINOMEscan panel) (Homo sapiens, UniProt Q8IU85), sequence (Q8IU85 whole entry): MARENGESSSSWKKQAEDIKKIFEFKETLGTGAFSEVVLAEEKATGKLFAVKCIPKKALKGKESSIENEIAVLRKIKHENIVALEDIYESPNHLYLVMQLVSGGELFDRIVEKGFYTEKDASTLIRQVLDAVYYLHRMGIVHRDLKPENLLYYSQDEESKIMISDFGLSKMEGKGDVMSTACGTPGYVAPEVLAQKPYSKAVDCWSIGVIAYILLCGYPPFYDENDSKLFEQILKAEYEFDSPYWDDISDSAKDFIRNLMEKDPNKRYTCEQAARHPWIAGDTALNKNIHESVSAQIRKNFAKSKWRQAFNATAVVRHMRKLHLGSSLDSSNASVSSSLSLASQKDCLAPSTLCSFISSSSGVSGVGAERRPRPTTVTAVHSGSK
kinases (KINOMEscan panel) (Homo sapiens, UniProt Q07002), sequence (Q07002 whole entry): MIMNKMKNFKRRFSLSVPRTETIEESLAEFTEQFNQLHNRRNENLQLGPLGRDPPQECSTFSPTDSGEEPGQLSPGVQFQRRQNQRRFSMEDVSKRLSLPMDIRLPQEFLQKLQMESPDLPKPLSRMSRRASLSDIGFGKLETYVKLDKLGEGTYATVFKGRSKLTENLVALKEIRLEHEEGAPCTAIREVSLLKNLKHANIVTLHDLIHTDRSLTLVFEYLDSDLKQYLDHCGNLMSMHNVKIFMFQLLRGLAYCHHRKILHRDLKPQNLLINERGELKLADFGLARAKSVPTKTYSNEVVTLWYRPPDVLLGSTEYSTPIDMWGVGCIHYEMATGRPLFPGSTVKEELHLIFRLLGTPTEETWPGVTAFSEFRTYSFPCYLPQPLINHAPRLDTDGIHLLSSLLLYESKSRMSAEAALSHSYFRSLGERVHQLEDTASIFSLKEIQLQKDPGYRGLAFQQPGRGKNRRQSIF
kinases (KINOMEscan panel) (Homo sapiens, UniProt P06239), sequence (P06239 whole entry): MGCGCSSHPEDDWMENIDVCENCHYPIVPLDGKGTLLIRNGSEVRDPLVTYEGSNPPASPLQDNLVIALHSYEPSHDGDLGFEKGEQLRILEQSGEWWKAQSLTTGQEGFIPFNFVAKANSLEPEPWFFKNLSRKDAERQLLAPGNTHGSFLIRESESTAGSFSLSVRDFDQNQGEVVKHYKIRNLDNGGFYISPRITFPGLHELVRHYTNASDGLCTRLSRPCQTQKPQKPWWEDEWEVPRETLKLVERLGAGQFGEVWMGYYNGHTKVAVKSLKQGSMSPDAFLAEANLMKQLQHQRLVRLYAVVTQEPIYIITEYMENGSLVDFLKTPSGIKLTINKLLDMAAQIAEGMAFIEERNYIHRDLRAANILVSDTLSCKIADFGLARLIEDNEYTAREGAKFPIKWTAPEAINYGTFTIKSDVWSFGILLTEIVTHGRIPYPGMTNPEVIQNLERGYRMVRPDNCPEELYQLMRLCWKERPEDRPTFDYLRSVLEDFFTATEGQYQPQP
kinases (KINOMEscan panel) (Homo sapiens, UniProt Q9H3Y6), sequence (Q9H3Y6 whole entry): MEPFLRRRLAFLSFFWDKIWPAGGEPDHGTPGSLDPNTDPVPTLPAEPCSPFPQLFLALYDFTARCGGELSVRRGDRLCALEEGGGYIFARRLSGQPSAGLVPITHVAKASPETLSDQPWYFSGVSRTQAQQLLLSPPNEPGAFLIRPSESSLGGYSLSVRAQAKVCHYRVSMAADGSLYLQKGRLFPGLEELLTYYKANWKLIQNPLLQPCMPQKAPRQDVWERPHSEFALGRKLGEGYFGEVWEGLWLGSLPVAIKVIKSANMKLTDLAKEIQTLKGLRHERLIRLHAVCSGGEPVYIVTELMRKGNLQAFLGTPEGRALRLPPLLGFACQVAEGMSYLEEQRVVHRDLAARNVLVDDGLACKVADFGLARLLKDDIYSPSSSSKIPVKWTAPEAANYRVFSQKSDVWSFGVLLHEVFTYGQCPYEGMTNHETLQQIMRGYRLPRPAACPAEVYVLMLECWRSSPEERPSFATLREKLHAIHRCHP

Compound | KINOMEscan ERBB3 [1] | KINOMEscan SRMS [2] | KINOMEscan LCK [3] | KINOMEscan RIOK1 [4] | KINOMEscan ACVR2A [5] | KINOMEscan CDK18 [6] | KINOMEscan PIP4K2C [7] | KINOMEscan CAMK1D [8] | KINOMEscan PRKCI [9] | KINOMEscan ABL1(T315I)-nonphosphorylated [10] | KINOMEscan ABL1(T315I)-phosphorylated [10] | KINOMEscan EGFR(E746-A750del) [11]
Cc1cccc(-c2nc(Nc3ccc4nn(C)cc4c3)c3ccccc3n2)n1 [NK167] | 0 | 21 | 0 | 1 | 0 | 0 | 0 | 0 | 0 | 0 | 4 | 15
Cc1cccc(-c2nc(N(C)c3ccc4ncsc4c3)c3ccccc3n2)n1 [NK-161] | 11 | 26 | 2 | 0 | 0 | 0 | 0 | 0 | 0 | 0 | 3 | 21
